Measurements taken from patent US8008345B2, “Dermal therapy using phosphate derivatives of electron transfer agents” (Vital Health Sciences Pty. Ltd., priority 2001, dated 2011).
Counter-ions that a name gives are not always drawn.

What was measured:
insect bite = test: Case: insect bite with blistering and inflammation (Example 9); type: in vivo, human; details: oral anti-histamine plus topical corticosteroid cream together, first day
Source text: In this example, a method of the invention is used to treat erythema and inflammation symptoms associated with an insect bite.

photodamaged skin (face) = test: Eight-week pilot study on photodamaged skin: clinical grading of efficacy (aging) parameters; type: in vivo, human; details: pilot study outcome, stated for the active
Protocol: An eight-week double blind vehicle controlled pilot study was conducted to evaluate the effects of a topical treatment comprising tocopheryl phosphate complexes on improving the appearance of photodamaged skin. Ten female subjects completed the pilot study.
At Visit 1 (screening), prospective subjects completed a health and eligibility questionnaire, and signed a photography release form and an informed consent agreement. Subjects were examined for study eligibility criteria according to the following classifications: […]
Qualified subjects returned to the clinic for Visit 2 (baseline). Subjects participated in the following clinical grading and instrumentation procedures: • Objective irritation (erythema, edema, scaling/skin dryness, rash) and subjective irritation (burning, itching, stinging, tingling, tightness) were assessed globally on the face. Results were recorded using the following scale: 0=none, 1=mild, 2=moderate, and 3=severe. • The following efficacy (aging) parameters were graded at the specified locations using a analog scale (extremes of the scale are listed in parentheses). […]
Mean scores for clinical grading parameters and pinch recoil measurements at Week 4 and Week 8 were statistically compared to baseline using a paired t-test at the p≦0.05 significance level. Mean percent change from baseline was calculated for all attributes. […]

facial skin = tested on: facial skin; design: species or system human; details: in vivo
Protocol: Qualified subjects returned to the clinic for Visit 2 (baseline). Subjects participated in the following clinical grading and instrumentation procedures: • Objective irritation (erythema, edema, scaling/skin dryness, rash) and subjective irritation (burning, itching, stinging, tingling, tightness) were assessed globally on the face. Results were recorded using the following scale: 0=none, 1=mild, 2=moderate, and 3=severe. • The following efficacy (aging) parameters were graded at the specified locations using a analog scale (extremes of the scale are listed in parentheses).
Subjects were assigned to use test material Product A (cream from Example 4) or Product B (Vehicle control: emulsion system) according to a predetermined randomization. […]
Mean scores for clinical grading parameters and pinch recoil measurements at Week 4 and Week 8 were statistically compared to baseline using a paired t-test at the p≦0.05 significance level. Mean percent change from baseline was calculated for all attributes. […] For self-assessment questionnaire responses at Week 4 and Week 8, mean response values and standard deviations were calculated for each question.
Irritation parameters were graded according to a four-point scale where 0=None, 1=Mild, 2=Moderate, and 3=Severe. Efficacy parameters were assessed according to an analog scale where 0 represents positive scores and 10 represents negative scores.

Row | Compound | improvement of bite (insect bite) | appearance of fine lines, wrinkles and skin elasticity in photodamaged skin (photodamaged skin (face)) | objective or subjective skin irritation responses in users (facial skin)
1 | CC(C)(C(=O)O)c1ccc(C(O)CCCN2CCC(C(O)(c3ccccc3)c3ccccc3)CC2)cc1 (stereo not drawn) [fexofenadine hydrochloride] | little improvement |  | 
2 | Lauryliminodipropionic Acid Tocopheryl Phosphate |  | improved the appearance of fine lines, wrinkles and skin elasticity | did not produce objective or subjective skin irritation responses
